Holding throughout (assay type): cell-based, human
In assay [1] the test system is α-/β-tubulins in HeLa/DDP cells. Nature of the assay: Western blot of polymerized and dissociated α-/β-tubulins, HeLa/DDP. As to conditions: versus control. As to the method: (§1) HeLa cells were cultured in 60 mm Petri dishes at a density of 1.0 × 10^6 cells per dish and treated with 0.1% DMSO (vehicle), positive control chalcone (20 μM), and different concentrations of compound 3k (2.5, 5, and 10 μM), respectively. Following a 24 and 48 h incubation period, the cells were harvested via centrifugation and subsequently washed twice with PBS that had been chilled to 0 °C. Next, the cells were homogenized using RIPA lysis buffer (Solarbio, Beijing, China) and supplemented with 1% PMSF (MP Biomedicals, 0754-25G, CAS:329-98-6, Santa Ana, CA, USA) and 1% mixed phosphatase inhibitor (Solarbio, Beijing, China). The resulting lysates were then incubated on ice for 30 min, intermittently vortexed every 5 min, and subsequently centrifuged at 12,000 rpm for 20 min to collect the supernatants.
(§2) Subsequently, the protein concentrations were determined utilizing a BCA Protein Assay Kit (Solarbio, China). An equivalent quantity of the proteins (12 μg) was fractionated via 8–12% sodium dodecyl sulfate–polyacrylamide gel electrophoresis (SDS-PAGE) and transferred onto nitrocellulose membranes (Amersham Biosciences, Amersham, UK). Following this, the membranes were obstructed with 5% nonfat dried milk in TBS containing 1% Tween-20 for a duration of 2 h at ambient temperature and were subjected to overnight incubation with specific primary antibodies (CST, Boston, MA, USA) at 4 °C. Following three washes in TBST, the membranes were subjected to incubation with the suitable HRP-conjugated secondary antibodies at ambient temperature for a duration of 2 h. The blots were subsequently visualized using enhanced chemiluminescence (Biosharp, Shanghai, China) and detected utilizing a PE 0723 imager (ProteinSimple, Silicon Valley, CA, USA). Each experiment was conducted in triplicate at minimum and analyzed employing Image J software (V1.8.0.112). β-actin(ab198991) rabbit mAb, goat anti-rabbit IgG (H + L) HRP—#S0001 (Affinity). Bax (ab289364), Bcl-2 (ab218123), MDR1/ABCB1 (E1Y7B) rabbit mAb #13342 (CST).
(§3) Polymerized and free microtubule proteins were extracted using the methods described in references, respectively. Following drug intervention, the cells were subjected to two washes with preheated microtubule protein buffer MTSB at 37 °C. Subsequently, 70 μL of MTSB was added, and the cells were lysed for 10 min at 37 °C in a constant temperature chamber shielded from light. The cells were then scraped with a spatula and centrifuged at 14,000 r/min for 10 min at room temperature. The resulting supernatant, which represented the free state microtubule protein suspension, was subsequently removed. The remaining precipitate was treated with RIPA lysis solution, followed by lysis on ice for a duration of 30 min. Subsequently, centrifugation was performed at a temperature of 4 °C and a speed of 12,000 revolutions per minute for a duration of 20 min. The resulting supernatant was collected as a suspension of polymerized microtubule protein. The Western blotting procedure was the same as in Section 3.3.4. α-Tubulin (DM1A) Mouse mAb#3873 (CST), β-Tubulin (D2N5G) Rabbit mAb #15115 (CST), CoraLite488-conjugated Goat Anti-Mouse lgG(H+L) (Proteintech); CoraLite488-conjugated Goat Anti-Rabbit lgG(H+L) (Proteintech); β-actin(ab198991) rabbit mAb, Goat Anti-Mouse IgG H&L (HRP) (ab6789); Goat anti-Rabbit IgG (H+L) HRP—#S0001 (Affinity).

The test system of another assay is HeLa cells. Kind of assay: Transwell migration assay, HeLa. To be noted: 24 h, control 1176. As to the method:
HeLa (5 × 10^4 cells) was suspended in 200 μL of FBS-free medium. The top chamber contained the vehicle and various concentrations of compound 3k (2.5, 5, and 10 μM), cisplatin (20 μM) and chalcone (20 μM). The lower chamber was filled with 600 μL of medium containing 10% FBS. After incubating at 37 °C for 24 h, the cells on the top side of the Transwell membrane were removed with a cotton tip. Cells were fixed and stained with 4% paraformaldehyde (LEAGENE BIOTECHNOLOGY, Cat:DF0135, Lot:0823A23, Zhongguancun, Haidian District, Beijing, China) and 0.1% crystal violet solutions (Leagene Biotechnology, Cat:DZ0055, Lot:0508A23, Zhongguancun, Haidian District, Beijing, China) for 30 min to fix cells trapped on the perforated side of the membrane.

The subject of assay [2] is α-/β-tubulins in HeLa cells. Kind of assay: Western blot of polymerized and dissociated α-/β-tubulins, HeLa. To be noted: 24 h, versus control. How it is done: as §1, §2, §3
For orientation: A western blot detects proteins with antibodies after separation by electrophoresis.

The next assay relates to Bcl-2. Nature of the assay: Western blot, Bcl-2 expression in HeLa cells. As to conditions: 24 h, 5 and 10 μM. How it is done:
as §1, with “The resulting lysates were then incubated on ice for 30 min, intermittently vortexed every 5 min, and subsequently centrifuged at 12,000 rpm for 20 min to collect the supernatants.” left out
(§4) Subsequently, the protein concentrations were determined utilizing a BCA Protein Assay Kit (Solarbio, China). An equivalent quantity of the proteins (12 μg) was fractionated via 8–12% sodium dodecyl sulfate–polyacrylamide gel electrophoresis (SDS-PAGE) and transferred onto nitrocellulose membranes (Amersham Biosciences, Amersham, UK). […] The blots were subsequently visualized using enhanced chemiluminescence (Biosharp, Shanghai, China) and detected utilizing a PE 0723 imager (ProteinSimple, Silicon Valley, CA, USA). Each experiment was conducted in triplicate at minimum and analyzed employing Image J software (V1.8.0.112). β-actin(ab198991) rabbit mAb, goat anti-rabbit IgG (H + L) HRP—#S0001 (Affinity). […]

Another assay concerns Bax. Nature of the assay: Western blot, Bax expression in HeLa cells. To be noted: 24 h, 2.5, 5, and 10 μM. How it is done:
as §1, with “The resulting lysates were then incubated on ice for 30 min, intermittently vortexed every 5 min, and subsequently centrifuged at 12,000 rpm for 20 min to collect the supernatants.” left out
as §4

Assay [3] concerns α-tubulin, β-tubulin in HeLa/DDP cells. Kind of assay: Immunofluorescence assay of microtubules, HeLa/DDP. To be noted: 24 h, 3k 1, 2, and 4 μM, paclitaxel 2.0 μM. How it is done:
The cells were then fixed by adding 400 μL of 4% paraformaldehyde to each well and incubating for 30 min. 0.1% Triton was added at a volume of 400 μL per well and allowed to incubate for 10 min. Following this, goat serum (10%) was added at 400 μL per well and incubated for 40 min. Primary antibodies (α-tubulin, β-tubulin) were then incubated overnight at a temperature of 4 °C. Subsequently, secondary antibodies (α-mouse, β-rabbit) were incubated for 1.5 h. DAPI staining was performed at 400 μL per well for 5 min, followed by a wash with PBS. Cell climbing tablets were removed and inverted onto slides with sealer. Photographs were captured using a fluorescent inverted microscope.

Regarding `COc1ccc(/C=C(\C)C(=O)c2ccc(Cl)c(Cl)c2)cc1OC` [Compound 3k, (E)-1-(3,4-Dichlorophenyl)-3-(3,4-dimethoxyphenyl)-2-methylprop-2-en-1-one], in assay [1] (24 h, 1, 2, and 4 μM), the “expression of polymerized β microtubulin” value was “significant reduction”. In addition, the “expression of polymerized α-microtubulin” value in assay [1] (24 h, 2 and 4 μM) is recorded as “significant decrease”. Moreover, the “expression of dissociated state α and β microtubule proteins” value is on record as “significant increase” in assay [1] (24 h, 3k 4 μM, colchicine and paclitaxel 2.0 μM); “significant increase” in assay [2] (3k 4 μM, colchicine 2 μM, paclitaxel 2.0 μM). Besides, the results for the “number of migrated cells” value in the assay with HeLa cells (2.5 μM), in the assay with HeLa cells (5 μM) and in the assay with HeLa cells (10 μM) were 518, 388 and 166, respectively. For the same compound, the “expression of α and β microtubule proteins in the polymerized state” value in assay [2] (3k 2 and 4 μM, colchicine and paclitaxel 2.0 μM) was “significant decrease”. The “Bcl-2 expression versus control group” value in the assay on Bcl-2 is on record as “downregulation”. Moreover, in the assay on Bax, the “Bax expression versus control group” value is listed as “significant upregulation”. Moreover, in assay [3], the “microtubule immunofluorescence (α green, β red)” value is “attenuation of the green and red fluorescence of the enclosed cells”.

Source of the values: publication PMC10707934, “Design and Synthesis of Novel α-Methylchalcone Derivatives, Anti-Cervical Cancer Activity, and Reversal of Drug Resistance in HeLa/DDP Cells” (Molecules, 2023).
